Reference: US20090035306A1 (KALYPSYS, INC., priority 2006, published 2009)

Biological target: T1, human TGR5 (Homo sapiens, UniProt Q8TDU6)
T1 construct: expressed in transfected cells
T1 sequence (Q8TDU6 1-330): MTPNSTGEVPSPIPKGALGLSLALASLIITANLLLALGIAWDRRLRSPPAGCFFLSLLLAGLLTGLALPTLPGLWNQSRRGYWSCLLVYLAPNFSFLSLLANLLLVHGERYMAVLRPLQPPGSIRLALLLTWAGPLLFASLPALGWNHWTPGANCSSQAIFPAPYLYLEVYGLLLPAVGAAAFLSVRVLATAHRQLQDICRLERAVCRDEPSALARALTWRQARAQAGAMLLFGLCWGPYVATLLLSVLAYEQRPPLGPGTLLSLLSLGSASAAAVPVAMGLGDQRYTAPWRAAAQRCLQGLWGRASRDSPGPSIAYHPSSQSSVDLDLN
Test: cAMP production assay in HEK293 cells stably expressing TGR5 (LANCE TR-FRET)
Format: cell-based
Details: 30 minutes stimulation, read-out: cAMP Production in 293-TGR5 Cells EC50
Method: HEK293 cells stably expressing TGR5 (HEK293-TGR5) were established by stably transfecting HEK-293 cells with an expression vector (pcDNA 3.1, Invetrogen) inserted with human TGR5 cDNA using Fugene6 (Roche, Indianapolis, Ind.) according to conventional methods. Cells were grown in DMEM (invitrogen, Carlsbad, Calif.) supplemented with 10% FBS, 1% penicillin/streptomycin under geneticin selection. The presence of TGR5 transcripts in these cells was confirmed using branched DNA (bDNA, Genospectra, Inc., Fremont Calif.) following the manufacturer's protocol and using specific probes for human TGR5. cAMP production assay was performed in high throughput 1536 well format using LANCE cAMP detection kit (Perkin Elmer Inc., Boston, Mass.) according to the manufacturer's protocol. Briefly, HEK293-TGR5 cells were harvested using non-enzymatic cell dissociation buffer (Invitrogen, Carlsbad, Calif.) and suspended in DMEM supplemented with 0.1% FBS at a density of 800,000 cells/ml. Alexa antibody was added to the cell suspension, and 4 ul of the mixture was dispensed in white opaque tissue culture treated Greiner 1536 well plates (USA Scientific, Inc., Ocala, Fla.). After an overnight incubation at 37 C in an atmosphere of 10% CO2 and 95% humidity, 1 ul of 5 mM IBMX (Sigma, St. Louis, Mo.) solution in DMEM was dispensed for a final concentration of 1 mM. Cells were then stimulated with test compounds for 30 minutes, after which time 5 ul of detection reagent was added and incubated for 1-7 hrs at room temperature. TR-FRET signal was detected using the Viewlux (Perkin Elmer Inc., Boston Mass.). EC50 values were determined using Graph Pad Prizm analysis (GraphPad Software, Inc). The EC50 values for a wide range of bile acids generated from this assay were in agreement with the values published in the scientific literature. […] The symbol (+) denotes an EC50 value of ≦10 μM while the symbol (−) denotes an EC50 value of >10 μM (see Table 1).

Row | Structure (SMILES) | EC50 [µM]
1 | Cc1ccc2c(=O)n(NCc3ccc(Br)cc3)c(-c3ccccc3F)nc2c1 [Example 24, 3-(4-bromobenzylamino)-2-(2-fluorophenyl)-7-methylquinazolin-4(3H)-one] | ≤ 10
2 | Cc1ccc2c(=O)n(NCc3ccc(Br)cc3)c(-c3ccc(F)cc3)nc2c1 [Example 81, 3-(4-bromobenzylamino)-2-(4-fluorophenyl)-7-methylquinazolin-4(3H)-one] | ≤ 10
3 | COc1cc(-c2nc3ccccc3c(=O)n2NCc2ccc(Cl)cc2)ccc1F [Example 73, 3-(4-chlorobenzylamino)-2-(4-fluoro-3-methoxyphenyl)quinazolin-4(3H)-one] | ≤ 10
4 | Cc1cccc2c(=O)n(NCc3ccc(Br)cc3)c(-c3ccc(F)cc3)nc12 [Example 70, 3-(4-bromobenzylamino)-2-(4-fluorophenyl)-8-methylquinazolin-4(3H)-one] | ≤ 10
5 | O=c1c2ccccc2nc(-c2ccccc2F)n1NCc1ccc(C(F)(F)F)c(F)c1 [Example 21, 3-(3-fluoro-4-(trifluoromethyl)benzylamino)-2-(2-fluorophenyl)quinazolin-4(3H)-one] | ≤ 10
6 | O=c1c2ccccc2nc(-c2ccc3c(c2)OCO3)n1NCc1ccc(Cl)cc1 [Example 64, 2-(benzo[d][1,3]dioxol-5-yl)-3-(4-chlorobenzylamino)quinazolin-4(3H)-one] | ≤ 10
7 | O=c1c2cccc(O)c2nc(-c2ccc(F)cc2)n1NCc1ccc(Cl)cc1 [Example 114, 3-(4-chlorobenzylamino)-2-(4-fluorophenyl)-8-hydroxyquinazolin-4(3H)-one] | ≤ 10
8 | COc1cc(-c2nc3ccccc3c(=O)n2NCc2ccc(Cl)cc2)ccc1C [Example 66, 3-(4-chlorobenzylamino)-2-(3-methoxy-4-methylphenyl)quinazolin-4(3H)-one] | ≤ 10
9 | O=c1c2cc(F)ccc2nc(-c2cccc(F)c2)n1NCc1ccc(Br)cc1 [Example 106, 3-(4-bromobenzylamino)-6-fluoro-2-(3-fluorophenyl)quinazolin-4(3H)-one] | ≤ 10
10 | O=c1c2ccccc2nc(-c2ccccc2F)n1NCc1ccc(F)cc1F [Example 12, 3-(2,4-difluorobenzylamino)-2-(2-fluorophenyl)quinazolin-4(3H)-one] | ≤ 10
11 | O=c1c2ccccc2nc(-c2ccc(F)cc2)n1NCc1ccc(C(F)(F)F)cc1 [Example 78, 2-(4-fluorophenyl)-3-(4-(trifluoromethyl)benzylamino)quinazolin-4(3H)-one] | ≤ 10
12 | O=c1c2ccccc2nc(-c2ccccc2F)n1NCc1ccc(C(F)(F)F)cc1 [Example 17, 2-(2-fluorophenyl)-3-(4-(trifluoromethyl)benzylamino)quinazolin-4(3H)-one] | ≤ 10
13 | O=c1c2ccc(F)cc2nc(-c2ccc(F)cc2)n1NCc1ccc(Cl)cc1 [Example 108, 3-(4-chlorobenzylamino)-7-fluoro-2-(4-fluorophenyl)quinazolin-4(3H)-one] | ≤ 10
14 | O=c1c2ccccc2nc(-c2ccc(F)cc2)n1NCc1ccc(Cl)cc1 [Example 79, 3-(4-chlorobenzylamino)-2-(4-fluorophenyl)quinazolin-4(3H)-one] | ≤ 10
15 | COc1cc(OC)cc(-c2nc3ccccc3c(=O)n2NCc2ccc(Cl)cc2)c1 [Example 59, 3-(4-chlorobenzylamino)-2-(3,5-dimethoxyphenyl)quinazolin-4(3H)-one] | ≤ 10
16 | COc1ccc2c(=O)n(NCc3ccc(Cl)cc3)c(-c3ccc(F)cc3)nc2c1 [Example 35, 3-(4-chlorobenzylamino)-2-(4-fluorophenyl)-7-methoxyquinazolin-4(3H)-one] | > 10
17 | O=c1c2ccccc2nc(-c2ccccc2F)n1NCc1ccc(Cl)cc1Cl [Example 4, 3-(2,4-dichlorobenzylamino)-2-(2-fluorophenyl)quinazolin-4(3H)-one] | ≤ 10
18 | O=c1c2ccccc2nc(-c2ccc(Cl)cc2)n1NCc1ccc(F)c(F)c1 [Example 53, 2-(4-chlorophenyl)-3-(3,4-difluorobenzylamino)quinazolin-4(3H)-one] | ≤ 10
19 | O=c1c2ccccc2nc(C2CCCCC2)n1NCc1ccc(Cl)cc1 [Example 45, 3-(4-chlorobenzylamino)-2-cyclohexylquinazolin-4(3H)-one] | ≤ 10

Row | Structure (SMILES) | EC50 [µM]
20 | COc1cc(-c2nc3ccccc3c(=O)n2NCc2ccc(Cl)cc2)ccc1Cl [Example 75, 3-(4-Chloro-benzylamino)-2-(4-chloro-3-methoxy-phenyl)-3H-quinazolin-4-one] | ≤ 10
21 | O=c1c2ccccc2nc(-c2ccc(Cl)cc2)n1NCc1ccc(Br)cc1 [Example 47, 3-(4-bromobenzylamino)-2-(4-chlorophenyl)quinazolin-4(3H)-one] | ≤ 10
22 | O=c1c2ccccc2nc(CCc2ccccc2)n1NCc1ccc(F)cc1F [Example 16, 3-(2,4-difluorobenzylamino)-2-phenethylquinazolin-4(3H)-one] | ≤ 10
23 | O=c1c2ccccc2nc(-c2ccccc2F)n1NCc1cccc(Cl)c1 [Example 18, 3-(3-chlorobenzylamino)-2-(2-fluorophenyl)quinazolin-4(3H)-one] | ≤ 10
24 | O=c1c2ccccc2nc(-c2ccccc2C(F)(F)F)n1NCc1ccc(Br)cc1 [Example 8, 3-(4-bromobenzylamino)-2-(2(trifluoromethyl)phenyl)quinazolin-4(3H)-one] | ≤ 10
25 | O=c1c2cc(F)ccc2nc(-c2cccc(F)c2)n1NCc1ccccc1 [Example 103, 3-(benzylamino)-6-fluoro-2-(3-fluorophenyl)quinazolin-4(3H)-one] | ≤ 10
26 | COc1ccc(-c2nc3ccccc3c(=O)n2NCc2ccc(Cl)cc2)cc1OC [Example 62, 3-(4-chlorobenzylamino)-2-(3,4-dimethoxyphenyl)quinazolin-4(3H)-one] | > 10
27 | O=c1c2ccccc2nc(-c2ccccc2)n1NCc1ccccc1 [Example 6, 3-(benzylamino)-2-phenylquinazolin-4(3H)-one] | ≤ 10
28 | Cc1cc(-c2nc3ccccc3c(=O)n2NCc2ccc(Cl)cc2)ccc1F [Example 57, 3-(4-chlorobenzylamino)-2-(4-fluoro-3-methylphenyl)quinazolin-4(3H)-one] | ≤ 10
29 | O=c1c2ccccc2nc(-c2ccccc2F)n1NCc1ccc(OC(F)(F)F)cc1 [Example 23, 2-(2-fluorophenyl)-3-(4-(trifluoromethoxy)benzylamino)quinazolin-4(3H)-one] | ≤ 10
30 | CCCN(Cc1ccc(Br)cc1)n1c(-c2ccc(F)cc2)nc2ccccc2c1=O [Example 94, 3-((4-bromobenzyl)(propyl)amino)-2-(4-fluorophenyl)quinazolin-4(3H)-one] | ≤ 10
31 | Cc1ccc(CNn2c(-c3ccccc3F)nc3ccccc3c2=O)cc1 [Example 22, 2-(2-fluorophenyl)-3-(4-methylbenzylamino)quinazolin-4(3H)-one] | ≤ 10
32 | CN(C)c1ccc(-c2nc3ccccc3c(=O)n2NCc2ccc(Cl)cc2)cc1 [Example 43, 3-(4-chlorobenzylamino)-2-(4-(dimethylamino)phenyl)quinazolin-4(3H)-one] | ≤ 10
33 | COc1cccc2c(=O)n(NCc3ccc(Cl)cc3)c(-c3ccc(F)cc3)nc12 [Example 77, 3-(4-Chloro-benzylamino)-2-(4-fluoro-phenyl)-8-methoxy-3H-quinazolin-4-one] | ≤ 10
34 | O=c1c2ccccc2nc(-c2ccc(F)c(F)c2)n1NCc1ccc(Br)cc1 [Example 92, 3-(4-bromobenzylamino)-2-(3,4-difluorophenyl)quinazolin-4(3H)-one] | ≤ 10
35 | Cc1ccc2c(=O)n(NCc3ccc(F)cc3F)c(-c3ccccc3F)nc2c1 [Example 25, 3-(2,4-difluorobenzylamino)-2-(2-fluorophenyl)-7-methylquinazolin-4(3H)-one] | ≤ 10
36 | O=c1c2ccccc2nc(-c2cccc(F)c2)n1NCc1ccc(F)cc1F [Example 7, 3-(2,4-difluorobenzylamino)-2-(3-fluorophenyl)quinazolin-4(3H)-one] | ≤ 10
37 | COc1ccc(-c2nc3ccccc3c(=O)n2NCc2ccc(Br)cc2)cn1 [Example 116, 3-(4-bromobenzylamino)-2-(6-methoxypyridin-3-yl)quinazolin-4(3H)— one] | ≤ 10
38 | O=c1c2ccc(C(F)(F)F)cc2nc(-c2ccccc2F)n1NCc1ccc(Cl)cc1 [Example 30, 3-(4-chlorobenzylamino)-2-(2-fluorophenyl)-7-(trifluoromethyl)quinazolin-4(3H)-one] | > 10
